Here are results for three substances from patent US6060597A, “Cyclic oligosaccharide, and an agent containing the same for preventing or treating retroviral diseases” (Kikkoman Corporation, priority 1997, dated 2000).

Test [1] deals with fresh rat blood. Description: anticoagulation activity in fresh rat blood, microtiter plate, visual evaluation of serum separation. The format is biochemical. The note with it: citrated fresh rat blood, CaCl2-initiated, 15 minutes at room temperature; for anticoagulation activity: judged against 20 U/mg standard. As to the method:
Anticoagulation activity of sulfated cyclic oligosaccharide
Sulfated CI-8 was examined for its anticoagulation activity. 1% aqueous sulfated CI-8 solution obtained by dissolving 10 mg of sulfated CI-8 sodium in 1 ml de-ionized water was diluted at various concentrations with 0.85% sterilized NaCl solution (physiological saline) to prepare sulfated CI-8 solutions at various concentrations. Solutions of dextran 5000 sodium sulfate (Wako Pure Chemical Industries, Ltd.) at various concentrations were also prepared in the same manner. Standard solutions at various concentrations were prepared using dextran sodium sulfate having 20 U/mg anticoagulation activity (a gift from Meito Sangyo K. K.).
40 μl each of the aqueous solutions were put to each well on a 96-well microtiter plate. Then, 50 μof fresh rat blood containing 0.38% trisodium citrate was put to each well and mixed. Further, 10 μl of 2% aqueous CaCl2 solution and mixed whereby blood-coagulation reaction was initiated. The plate was left at room temperature for 15 minutes and centrifuged at 2000 rpm for 10 minutes, and the separation of the serum in each well was visually evaluated. As a result, the anticoagulation activity of sulfated CI-8 was judged to be about 1/2 relative to the known dextran sodium sulfate, so its activity was judged to be about […]. The activity of dextran 5000 sodium sulfate was judged to be about 40 U/mg.

The test system of test [2] is fresh rat blood. Particulars: stated activity of the standard substance (gift from Meito Sangyo K. K.); cited from earlier work.
Test [3] concerns the target binding of gp120 to CD4 receptor (HIV-1 M:B_HXB2R, UniProt P04578). Description: inhibition of the binding of gp120 to CD4 receptor (drug discovery kit, duPont). Particulars: concentration range of 0 to 100 mg/ml; FIG. 5. As to the method: Measurement of anti-HIV activity of sulfated CI-8
Sulfated CI-8 obtained above in Example 1 was examined for the activity of inhibiting the binding of gp120 to CD4 receptor in the concentration range of […] using a drug discovery kit (duPont).

For “dextran 5000 sodium sulfate [reference compound]”, the anticoagulation activity entry in the test on fresh rat blood [1] is “about 40 U/mg”.
Regarding dextran sodium sulfate, the “anticoagulation activity of the standard” value in the test on fresh rat blood [2] is 20 U/mg.
For “cyclic isomaltoctaose-heptadecyl-0-sulfate sodium salt [sulfated CI-8]”, the anticoagulation activity result with fresh rat blood [1] is recorded as “about 10 U/ml”. The “anticoagulation activity relative to the known dextran sodium sulfate” value in the test with fresh rat blood [1] (relative to 20 U/mg standard) was “about 1/2”. Further, the “activity of inhibiting the binding of gp120 to CD4 receptor” value in test [3] is “inhibited the binding of pg120 to CD4 in proportion to its concentration”.
